In patent US8124412B2, “Method of culturing conifer somatic embryos using S(+)-abscisic acid” (Cellfor Inc., priority 2005, dated 2012):

What was measured:
[1] = tested on: loblolly pine somatic embryos, line 76; experiment: Loblolly pine: S-ABA concentration in preculture II medium and maturation medium; assay type: cell-based, Pinus taeda (loblolly pine); settings: S-ABA 95% purity, line 76 (FIG. 6)
Method: The effect of S-ABA (95% purity) was tested in the loblolly pine pre-culture II medium followed by maturation medium. Somatic embryos of line 76 were cultured as described above; however, ABA was added to the pre-culture medium and maturation medium in the following treatments: […]

[2] = tested on: Douglas fir somatic embryos; experiment: Douglas fir somatic embryogenesis: maturation, germination and conversion after culture on S-ABA or S,R-ABA; assay type: cell-based, Pseudotsuga menziesii (Douglas fir)
Method: The culture medium used for Douglas fir was TX medium (see Table 1) with the following additives: glutamine 100 mg/L, casein hydrolysate 100 mg/L, and pH 5.8. The following compounds were added into the basal medium for Douglas fir somatic embryo development at different stages:
1) Solid maintenance medium: 9 μM 2,4-D and 4.5 μM BA, gellan gum 0.28%, sucrose 1%.
2) Liquid maintenance and bulking-up medium: 9 μM 2,4-D and 4.5 μM BA, different carbon sources for experiments.
3) Liquid pre-treatment medium: 20 (first week) or 30 μM ABA (second week), 10% PEG4000 (first week) or PEG1500 (second week), different carbon sources as described in examples below.
4) Solid maturation medium consisted of three media all with 0.02% NH4NO3 and the following:
Medium I. 40 μM ABA, 10% PEG 1500, maltose 2.5%, gellan gum 0.6%
Medium II. 60 μM ABA, 10% PEG1500, maltose 2.5% and sucrose 1%, gellan gum 0.8%
Medium III. 70 μM ABA, 6% PEG1500, sucrose 6%, gellan gum 1%.
The culture was kept in darkness at 23° C. Embryogenic tissue was sub-cultured once every two weeks onto solid maintenance medium. […]
5) Germination. The cultures were germinated at room temperature for 2 to 3 weeks on TX medium (Table 1), 0.5% gellan gum, 1 g/L NH4NO3 after which the germinants were hand selected and placed in low-light for 1 week and high-light for 7 weeks then planted in miniplugs and evaluated after 14 weeks.

[3] = tested on: loblolly pine somatic embryos, line 76; experiment: Loblolly pine somatic embryo maturation: plantable germinants per gram of tissue plated; assay type: cell-based, Pinus taeda (loblolly pine)
Method: The culture medium for loblolly pine was TX medium (see Table 1) with the following additives: Glutamine 2500 mg/L, casein hydrolysate 3000 mg/L, and pH 5.8. The following compounds were added into the basal medium for loblolly pine somatic embryo development at different stages:
1) Solid maintenance medium: 9 μM 2,4-D and 4.5 μM BA, gellan gum 0.3%, sucrose 1%, lactose 2%.
2) Liquid maintenance and bulking-up medium: 9 μM 2,4-D and 4.5 μM BA, 1% sucrose, 2% lactose.
3) Liquid pre-treatment medium: 1% sucrose, 2% lactose.
4) Preculture II medium. Lactose 2%, 1% sucrose
5) Solid maturation containing 1% gellan gum, and 2500 mg/L L-glutamine and 3000 mg/L casein hydrolysate, 3% sucrose. The maturation media contained different types of ABA and concentrations. S,R-ABA (98% purity) was tested at the previously determined optimum of 120 μM. S-ABA (90% purity) was tested at 60 μM and 120 μM. 0.3 grams of tissue were plated per petri-plate). Culture was for 18 weeks in the dark at room temperature. After, the embryos were desiccated for 1.5 hours in a stream of sterile air to a moisture content of less than 10%. Plates were stored at −28° C.
6) Germination. The filter papers with desiccated embryos attached were moved onto germination medium shown in Table 2, and cultured in the dark for 1 week then transferred to light. The numbers of germinants of suitable quality for planting were counted.

[4] = tested on: loblolly pine germinants/seedlings, line 76; experiment: Loblolly pine merchantable miniplug seedlings in nursery after maturation treatments; assay type: in vivo, Pinus taeda (loblolly pine); settings: line 76 (FIG. 5)
Method: The effect of the different kinds of ABA on the survival and vigour of germinants was investigated. The germinants were prepared as described above except that ABA in the maturation medium consisted of 95% and 98% purity S-ABA, which was used in the maturation medium at 60 and 120 μM concentration. The S,R-ABA (98% purity) was used at 60 and 120 μM concentration. Miniplug seedlings of merchantable quality were scored after 14 weeks in the nursery.

Structure (SMILES)	gradual increase in S-ABA compared to constant ABA throughout development ([1]; 45 μM S-ABA in pre-culture medium to 90 μM in maturation medium)	90 μM S-ABA maturation medium compared to 120 μM S-ABA maturation medium [1]	effect on maturation frequencies ([2]; Douglas fir, S-ABA compared with S,R-ABA)	conversion of embryos, increase compared to S,R-ABA ([2]; one Douglas fir cell line with low conversion potential, embryos cultured on S-ABA vs S,R-ABA (FIG. 3)) [fold]	number of plantable germinants per gram of tissue plated, compared to 120 μM S,R-ABA ([3]; 60 μM S-ABA (90% purity) in maturation medium, loblolly line 76 (FIG. 4))	number of plantable germinants, compared to 120 μM S,R-ABA ([3]; 120 μM S-ABA (90% purity) in maturation medium, loblolly line 76 (FIG. 4))	mean % merchantable seedlings, rank among treatments ([4]; 60 μM 98% purity S-ABA, after 14 weeks in nursery)	merchantable seedlings, compared to the 60 μM S,R-ABA treatment ([4]; 120 μM S-ABA, after 14 weeks in nursery)	mean % merchantable seedlings, compared to the S,R-ABA treatments ([4]; all S-ABA treatments (95% and 98% purity, 60 and 120 μM), scored after 14 weeks in nursery)	optimum concentration in maturation medium ([3]; loblolly pine, S,R-ABA 98% purity, previously determined) [µM]
CC1=CC(=O)CC(C)(C)[C@@]1(O)/C=C/C(C)=C\C(=O)O (mixture of isomers) [S-ABA, (+)-cis,trans-Abscisic Acid]	superior	superior	similar	2.5	significantly higher	double	significantly the is highest	more optimal	higher	
CC1=CC(=O)CC(C)(C)C1(O)/C=C/C(C)=C\C(=O)O (stereo not shown) [S,R-ABA, reference compound]										120
